Assay results from the supplement of paper PMC8149375.

Legend:
Conditions in all cases: treatment: drug + dasatinib (fixed dose, not stated); 5 days
769-P [1] = test: GI50 of drug in presence of dasatinib; higher = less potent
Protocol: (§1)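 Primary HTS combination arm: 8 RCC cell lines treated with 8 doses (up to 10 uM) of each library drug plus a fixed dose of dasatinib (dose not stated) for 5 days; viability read by CellTiter-Glo and normalised to DMSO. GI50 was fitted with XLfit, AUC is the area under the dose-response curve, and minimum viability is the lowest fraction of DMSO viability across doses.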

786-O [2] = test: as above
Protocol: as §1

A498 [3] = test: as above
Protocol: as §1

ACHN [4] = test: as above
Protocol: as §1

CAKI-1 [5] = test: as above
Protocol: as §1

SN12C [6] = test: as above
Protocol: as §1

TK-10 [7] = test: as above
Protocol: as §1

UO-31 [8] = test: as above
Protocol: as §1

769-P [9] = test: minimum viability across doses, drug + dasatinib, relative to DMSO (fraction); higher = less growth inhibition
Protocol: as §1

786-O [10] = test: as above
Protocol: as §1

A498 [11] = test: as above
Protocol: as §1

ACHN [12] = test: as above
Protocol: as §1

CAKI-1 [13] = test: as above
Protocol: as §1

SN12C [14] = test: as above
Protocol: as §1

TK-10 [15] = test: as above
Protocol: as §1

UO-31 [16] = test: as above
Protocol: as §1

769-P [17] = test: AUC of dose-response viability curve, drug + dasatinib, normalised to DMSO (arbitrary (AUC of normalised viability)); higher = less growth inhibition
Protocol: as §1

786-O [18] = test: as above
Protocol: as §1

A498 [19] = test: as above
Protocol: as §1

ACHN [20] = test: as above
Protocol: as §1

CAKI-1 [21] = test: as above
Protocol: as §1

SN12C [22] = test: as above
Protocol: as §1

TK-10 [23] = test: as above
Protocol: as §1

UO-31 [24] = test: as above
Protocol: as §1

| SMILES | GI50 of drug (769-P [1]) [µM] | GI50 of drug (786-O [2]) [µM] | GI50 of drug (A498 [3]) [µM] | GI50 of drug (ACHN [4]) [µM] | GI50 of drug (CAKI-1 [5]) [µM] | GI50 of drug (SN12C [6]) [µM] | GI50 of drug (TK-10 [7]) [µM] | GI50 of drug (UO-31 [8]) [µM] | minimum viability across doses (769-P [9]) | minimum viability across doses (786-O [10]) | minimum viability across doses (A498 [11]) | minimum viability across doses (ACHN [12]) | minimum viability across doses (CAKI-1 [13]) | minimum viability across doses (SN12C [14]) | minimum viability across doses (TK-10 [15]) | minimum viability across doses (UO-31 [16]) | AUC of dose-response viability curve (769-P [17]) | AUC of dose-response viability curve (786-O [18]) | AUC of dose-response viability curve (A498 [19]) | AUC of dose-response viability curve (ACHN [20]) | AUC of dose-response viability curve (CAKI-1 [21]) | AUC of dose-response viability curve (SN12C [22]) | AUC of dose-response viability curve (TK-10 [23]) | AUC of dose-response viability curve (UO-31 [24]) |
| --- | --- | --- | --- | --- | --- | --- | --- | --- | --- | --- | --- | --- | --- | --- | --- | --- | --- | --- | --- | --- | --- | --- | --- | --- |
| O=C(c1ccc(/C=C/c2n[nH]c3ccccc23)cc1)N1CCNCC1 [KW 2449] + Cc1nc(Nc2ncc(C(=O)Nc3c(C)cccc3Cl)s2)cc(N2CCN(CCO)CC2)n1 [dasatinib] | 2.78 | 8.58 | > 10 | 0.0785 | 2.54 | 1.24 | > 10 | 3.52 | 0.162 | 0.425 | 0.521 | 0.159 | 0.15 | 0.0456 | 0.611 | 0.0258 | 2.33 | 2.58 | 3.27 | 1.64 | 2.03 | 2.05 | 2.89 | 3.7 |
| O=C(Cc1ccc(-c2ccc(OCCN3CCOCC3)cc2)cn1)NCc1ccccc1 [KX2-391] + Cc1nc(Nc2ncc(C(=O)Nc3c(C)cccc3Cl)s2)cc(N2CCN(CCO)CC2)n1 [dasatinib] | 0.0359 | 0.0149 | 0.0776 | 0.0433 | 0.0295 | 0.0467 | 0.104 | 0.0926 | 0.0616 | 0.00445 | 0.166 | 0.1 | 0.111 | 0.114 | 0.243 | 0.00946 | 1.09 | 0.764 | 1.78 | 1.23 | 1.12 | 1.34 | 1.69 | 1.77 |
| COc1cc2nccc(Oc3ccc(NC(=O)Nc4ccc(F)cc4F)c(F)c3)c2cc1OC [Ki8751] + Cc1nc(Nc2ncc(C(=O)Nc3c(C)cccc3Cl)s2)cc(N2CCN(CCO)CC2)n1 [dasatinib] | 1.09 | 8.55 | > 10 | 1.28 | 1.41 | > 10 | > 10 | > 10 | 0.304 | 0.483 | 1.04 | 0.352 | 0.154 | 0.546 | 0.683 | 0.735 | 2.15 | 2.33 | 4.09 | 1.89 | 1.95 | 2.37 | 2.6 | 3.73 |
| CS(=O)(=O)CCNCc1ccc(-c2ccc3ncnc(Nc4ccc(OCc5cccc(F)c5)c(Cl)c4)c3c2)o1.Cc1ccc(S(=O)(=O)O)cc1.Cc1ccc(S(=O)(=O)O)cc1 [Lapatinib Ditosylate (Tykerb)] + Cc1nc(Nc2ncc(C(=O)Nc3c(C)cccc3Cl)s2)cc(N2CCN(CCO)CC2)n1 [dasatinib] | 0.401 | 6.69 | > 10 | 0.176 | 3.85 | > 10 | 3.34 | 5.85 | 0.18 | 0.426 | 0.798 | 0.352 | 0.211 | 0.606 | 0.3 | 0.35 | 1.77 | 2.41 | 3.08 | 1.7 | 2.03 | 2.34 | 2.34 | 3.08 |
| Nc1cccc2c1CN(C1CCC(=O)NC1=O)C2=O (stereo not drawn) [Lenalidomide (Revlimid)] + Cc1nc(Nc2ncc(C(=O)Nc3c(C)cccc3Cl)s2)cc(N2CCN(CCO)CC2)n1 [dasatinib] | > 10 | < 0.003 | > 10 | > 10 | > 10 | > 10 | > 10 | > 10 | 0.497 | 0.488 | 0.989 | 0.503 | 0.656 | 0.706 | 0.666 | 1.19 | 2.51 | 2.61 | 3.71 | 2.05 | 2.41 | 2.55 | 2.56 | 4.59 |
| Cc1ccc(F)c(NC(=O)Nc2ccc(-c3cccc4[nH]nc(N)c34)cc2)c1 [Linifanib (ABT-869)] + Cc1nc(Nc2ncc(C(=O)Nc3c(C)cccc3Cl)s2)cc(N2CCN(CCO)CC2)n1 [dasatinib] | 4 | > 10 | 9.11 | 3.71 | 7.59 | 1.87 | 3.45 | > 10 | 0.27 | 0.557 | 0.279 | 0.244 | 0.213 | 0.312 | 0.231 | 0.729 | 2.33 | 2.63 | 3.28 | 2.4 | 2.21 | 2.25 | 2.58 | 3.5 |
| C[C@]1(O)C[C@@H](c2nc(-c3ccc4ccc(-c5ccccc5)nc4c3)c3c(N)nccn32)C1 [Linsitinib (OSI-906)] + Cc1nc(Nc2ncc(C(=O)Nc3c(C)cccc3Cl)s2)cc(N2CCN(CCO)CC2)n1 [dasatinib] | > 10 | > 10 | > 10 | 2.97 | 2.6 | > 10 | > 10 | > 10 | 0.527 | 0.689 | 0.824 | 0.361 | 0.259 | 0.592 | 0.55 | 0.647 | 2.3 | 2.64 | 3.31 | 1.89 | 2.2 | 2.28 | 2.43 | 3.19 |
